Patent US10392622B2, “Compositions and methods for self-regulated inducible gene expression” (The Trustees of the University of Pennsylvania, priority 2014, dated 2019)
Entries after “also recorded” stand apart in the source; their conditions may differ.

Assays:
[1] = tested on: cells; conditions: CD-1, mouse
Procedure: Bioavailability of IPTG: Three CD-1 adult mice were gavaged with 25 μL of 1M IPTG per 10 g of body weight twice a day for 3 days. Animals were then sacrificed and major organs were harvested, mechanically homogenized, and steady state concentrations of IPTG in liver, kidney, skeletal muscle, and retina were determined using a beta-galacosidase assay^24. […] IPTG concentrations were tracked in various mouse tissues after a single 3-day IPTG gavage induction cycle. Data points represent mean+/−SD, n=3.

[2] = tested on: ARPE-19 cells; assay: Luciferase regulation assay in transfected ARPE-19 cells with and without IPTG; type: cell-based, human
Procedure: All gene regulation assays start by transiently transfecting the cell line of choice with the appropriate plasmid. Media is supplemented with effector of varying concentration in wells (IPTG for lacI repressor experiments and doxycycline for tet repressor experiments) and specific experimental conditions are typically grown side by side in triplicate. Experimental measurement times varied depending upon cell confluence but occurred 24 to 72 hours after transfection.
Cells were lysed with Reporter Lysis Buffer (Promega) and 5 μL of whole cell lysate was added to 45 μL of luciferase assay buffer (Promega) containing luciferin in 384 well optical bottom plates (Corning). Plates were immediately loaded into the Tecan M1000 and luciferase signal was measured for each well over time. Peak luciferase signal values were used for quantification. […]
The plasmid containing the cassette controlling luciferase was transfected into human retinal pigment epithelium (ARPE-19) cells and grown with and without 2.5 mM IPTG. We measured approximately 20% basal expression with a 3.5-fold induction (p<0.05) (FIG. 1D). […]
Point mutations introduced in the repressor can decrease leakiness, increase dynamic range, or change/alter the affinity for effector molecules in bacterial cells. […] These point mutations were introduced into the repressor and induction measured in ARPE-19 cells. […]

Row | Molecule | gavage concentration of IPTG, fold less than concentrations toxic to cells [1] | steady state tissue concentrations of IPTG, fold less than concentrations toxic to cells ([1]; 3 days) | leakiness, dynamic range and maximal expression phenotype (in words) [2]
1 | CC(C)SC1OC(CO)C(O)C(O)C1O [IPTG, isopropyl β-D-1-thiogalactopyranoside] | 50 fold | 500 fold | –
2 | Q18M: lacI repressor point mutant in the DNA binding domain, residue 18 Q to M (protein, listed as Escherichia coli) MKPVTLYDVAEYAGVSYMTVSRVVNQASHVSAKTREKVEAAMAELNYIPNRVAQQLAGKQSLLIGVATSSLALHAPSQIVAAIKSRADQLGASVVVSMVERSGVEACKAAVHNLLAQRVSGLIINYPLDDQDAIAVEAACTNVPALFLDVSDQTPINSIIFSHEDGTRLGVEHLVALGHQQIALLAGPLSSVSARLRLAGWHKYLTRNQIQPIAEREGDWSAMSGFQQTMQMLNEGIVPTAMLVANDQMALGAMRAITESGLRVGADISVVGYDDTEDSSCYIPPLTTIKQDFRLLGQTSVDRLLQLSQGQAVKGNQLLPVSLVKRKTTLAPNTQTASPRALADSLMQLARQVSRLESGQ | – | – | deceased leakiness at the expense of maximal expression; also recorded: decreased leakiness as well as the commensurate decreased dynamic range
3 | F161W: lacI repressor effector pocket point mutant, residue 161 F to W (protein, UniProt P03023 1-360, looked up, variant F161W) Lactose operon repressor: MKPVTLYDVAEYAGVSYQTVSRVVNQASHVSAKTREKVEAAMAELNYIPNRVAQQLAGKQSLLIGVATSSLALHAPSQIVAAIKSRADQLGASVVVSMVERSGVEACKAAVHNLLAQRVSGLIINYPLDDQDAIAVEAACTNVPALFLDVSDQTPINSIIWSHEDGTRLGVEHLVALGHQQIALLAGPLSSVSARLRLAGWHKYLTRNQIQPIAEREGDWSAMSGFQQTMQMLNEGIVPTAMLVANDQMALGAMRAITESGLRVGADISVVGYDDTEDSSCYIPPLTTIKQDFRLLGQTSVDRLLQLSQGQAVKGNQLLPVSLVKRKTTLAPNTQTASPRALADSLMQLARQVSRLESGQ | – | – | decreased leakiness and increased dynamic range
